Reference: PMC5218480 (PLoS ONE, 2017)

Test system: MV-4-11 cells
Test: Gene expression microarray analysis (Affymetrix PrimeView) and GSEA
Type: cell-based, human
Design: RFU PODN (11730768_x_at) / Fold change /veh PODN (11730768_x_at) / RFU LINC00158 (11744669_a_at) / Fold change /veh LINC00158 (11744669_a_at) / RFU DUSP10 (11751237_a_at) / Fold change /veh DUSP10 (11751237_a_at) / RFU ID3 (11757404_x_at) / Fold change /veh ID3 (11757404_x_at) / RFU PLEKHG5 (11737974_s_at) / Fold change /veh PLEKHG5 (11737974_s_at) / RFU LRRC4B (11730491_at) / Fold change /veh LRRC4B (11730491_at) / RFU GIMAP4 (11747438_a_at) / Fold change /veh GIMAP4 (11747438_a_at) / RFU KRT8 (11758183_x_at) / Fold change /veh KRT8 (11758183_x_at) / RFU CNN1 (11734310_a_at) / Fold change /veh CNN1 (11734310_a_at) / RFU VPS37D (11726825_at) / Fold change /veh VPS37D (11726825_at) / RFU C10orf10 (11716522_x_at) / Fold change /veh C10orf10 (11716522_x_at) / RFU KIR2DL2 /// KIR2DL4 /// KIR2DL5A /// KIR2DL5B /// KIR2DS1 /// KIR2DS2 /// KIR2DS3 /// KIR2DS4 /// KIR3DL3 /// KIR3DL3 /// KIR3DS1 (11738374_at) / Fold change /veh KIR2DL2 /// KIR2DL4 /// KIR2DL5A /// KIR2DL5B /// KIR2DS1 /// KIR2DS2 /// KIR2DS3 /// KIR2DS4 /// KIR3DL3 /// KIR3DL3 /// KIR3DS1 (11738374_at) / RFU C1QL1 (11718748_at) / Fold change /veh C1QL1 (11718748_at) / RFU TMPRSS4 (11747572_a_at) / Fold change /veh TMPRSS4 (11747572_a_at) / RFU HAMP (11756126_x_at) / Fold change /veh HAMP (11756126_x_at) / RFU RNFT2 (11725882_a_at) / Fold change /veh RNFT2 (11725882_a_at) / RFU NR4A2 (11747474_a_at) / Fold change /veh NR4A2 (11747474_a_at) / RFU ABCC12 (11746883_a_at) / Fold change /veh ABCC12 (11746883_a_at) / RFU TMEM136 (11760407_x_at) / Fold change /veh TMEM136 (11760407_x_at) / RFU CLDN22 /// WWC2 (11732394_at) / Fold change /veh CLDN22 /// WWC2 (11732394_at) / RFU HLA-DPB1 (11760878_x_at) / Fold change /veh HLA-DPB1 (11760878_x_at) / RFU SPINT1 (11716480_a_at) / Fold change /veh SPINT1 (11716480_a_at) / RFU GAP43 (11754022_s_at) / Fold change /veh GAP43 (11754022_s_at) / RFU A4GNT (11735810_at) / Fold change /veh A4GNT (11735810_at) / RFU PRB3 (11715151_x_at) / Fold change /veh PRB3 (11715151_x_at) / RFU TUBB4B (11761932_at) / Fold change /veh TUBB4B (11761932_at) / RFU CAPN14 (11732068_a_at) / Fold change /veh CAPN14 (11732068_a_at) / RFU TMCC2 (11721928_a_at) / Fold change /veh TMCC2 (11721928_a_at) / RFU IRGQ (11745062_a_at) / Fold change /veh IRGQ (11745062_a_at) / RFU FAM174B (11720279_a_at) / Fold change /veh FAM174B (11720279_a_at) / RFU TMPRSS4 (11748680_a_at) / Fold change /veh TMPRSS4 (11748680_a_at) / RFU FAM212B (11763350_a_at) / Fold change /veh FAM212B (11763350_a_at) / RFU PLEKHG5 (11743358_a_at) / Fold change /veh PLEKHG5 (11743358_a_at) / RFU ZSCAN30 (11745921_a_at) / Fold change /veh ZSCAN30 (11745921_a_at) / RFU CMKLR1 (11741424_a_at) / Fold change /veh CMKLR1 (11741424_a_at) / RFU LOC101060620 /// MAPK8IP1 (11723275_at) / Fold change /veh LOC101060620 /// MAPK8IP1 (11723275_at) / RFU SPTSSB (11747773_x_at) / Fold change /veh SPTSSB (11747773_x_at) / RFU PRSS12 (11739890_at) / Fold change /veh PRSS12 (11739890_at) / RFU BIN1 (11741810_x_at) / Fold change /veh BIN1 (11741810_x_at) / RFU WNT11 (11732464_a_at) / Fold change /veh WNT11 (11732464_a_at) / RFU C10orf10 (11716521_a_at) / Fold change /veh C10orf10 (11716521_a_at) / RFU C5orf56 (11738089_at) / Fold change /veh C5orf56 (11738089_at) / RFU CYB561 (11721691_x_at) / Fold change /veh CYB561 (11721691_x_at) / RFU ANKRD19P (11752326_a_at) / Fold change /veh ANKRD19P (11752326_a_at) / RFU OR2T12 /// OR2T33 /// OR2T8 (11738714_s_at) / Fold change /veh OR2T12 /// OR2T33 /// OR2T8 (11738714_s_at) / RFU VCAN (11748164_a_at) / Fold change /veh VCAN (11748164_a_at) / RFU JSRP1 (11732532_at) / Fold change /veh JSRP1 (11732532_at) / RFU KRTAP10-11 (11738290_x_at) / Fold change /veh KRTAP10-11 (11738290_x_at) / RFU MYO3A (11730013_a_at) / Fold change /veh MYO3A (11730013_a_at) / RFU EBF3 (11725865_a_at) / Fold change /veh EBF3 (11725865_a_at) / RFU CAMK2N1 (11719241_x_at) / Fold change /veh CAMK2N1 (11719241_x_at) / RFU C5orf56 (11738088_a_at) / Fold change /veh C5orf56 (11738088_a_at) / RFU OLFML3 (11715873_a_at) / Fold change /veh OLFML3 (11715873_a_at) / RFU LOC100653217 /// NTM (11731650_a_at) / Fold change /veh LOC100653217 /// NTM (11731650_a_at) / RFU MAPK11 (11762145_a_at) / Fold change /veh MAPK11 (11762145_a_at) / RFU FIZ1 (11724087_x_at) / Fold change /veh FIZ1 (11724087_x_at) / RFU OASL (11726364_x_at) / Fold change /veh OASL (11726364_x_at) / RFU SOX15 (11748057_x_at) / Fold change /veh SOX15 (11748057_x_at) / RFU CD79A (11719716_a_at) / Fold change /veh CD79A (11719716_a_at) / RFU HIST1H1D (11736915_at) / Fold change /veh HIST1H1D (11736915_at) / RFU CASKIN2 (11723855_a_at) / Fold change /veh CASKIN2 (11723855_a_at) / RFU LOC730098 (11760151_x_at) / Fold change /veh LOC730098 (11760151_x_at) / RFU OR4N2 (11742367_at) / Fold change /veh OR4N2 (11742367_at) / RFU PRRT2 (11749266_a_at) / Fold change /veh PRRT2 (11749266_a_at) / RFU SNX32 (11753110_a_at) / Fold change /veh SNX32 (11753110_a_at) / RFU CDHR5 (11726645_a_at) / Fold change /veh CDHR5 (11726645_a_at) / RFU RCAN1 (11760418_a_at) / Fold change /veh RCAN1 (11760418_a_at) / RFU FAM167A (11723789_a_at) / Fold change /veh FAM167A (11723789_a_at) / RFU FAM26E (11764081_at) / Fold change /veh FAM26E (11764081_at) / RFU ISYNA1 (11749810_s_at) / Fold change /veh ISYNA1 (11749810_s_at) / RFU ACY1 (11761880_at) / Fold change /veh ACY1 (11761880_at) / RFU 11764098_at / Fold change /veh 11764098_at / RFU SAMD14 (11745864_x_at) / Fold change /veh SAMD14 (11745864_x_at) / RFU NPB (11741838_a_at) / Fold change /veh NPB (11741838_a_at) / RFU TMPRSS6 (11731388_a_at) / Fold change /veh TMPRSS6 (11731388_a_at) / RFU KRTAP10-2 (11738614_at) / Fold change /veh KRTAP10-2 (11738614_at) / RFU ARHGAP8 /// PRR5-ARHGAP8 (11727945_x_at) / Fold change /veh ARHGAP8 /// PRR5-ARHGAP8 (11727945_x_at) / RFU KRTAP5-7 /// NADSYN1 (11734609_at) / Fold change /veh KRTAP5-7 /// NADSYN1 (11734609_at) / RFU RASL12 (11751679_a_at) / Fold change /veh RASL12 (11751679_a_at) / RFU CDKN2B (11736163_a_at) / Fold change /veh CDKN2B (11736163_a_at) / RFU PRF1 (11729649_at) / Fold change /veh PRF1 (11729649_at) / RFU, ZNF638 /// ZNF638-IT1 / Fold change vs veh, ZNF638 /// ZNF638-IT1 / RFU, PANK3 / Fold change vs veh, PANK3 / RFU, SH3YL1 / Fold change vs veh, SH3YL1 / RFU, ZEB2 / Fold change vs veh, ZEB2 / RFU, NRIP1 / Fold change vs veh, NRIP1 / RFU, PTTG1IP / Fold change vs veh, PTTG1IP / RFU, CAPN2 / Fold change vs veh, CAPN2 / RFU, MED14 / Fold change vs veh, MED14 / RFU, SNORA58 / Fold change vs veh, SNORA58 / RFU, C1orf63 / Fold change vs veh, C1orf63 / RFU, LRRFIP1 / Fold change vs veh, LRRFIP1 / RFU, NDUFAF7 / Fold change vs veh, NDUFAF7 / RFU, SLC12A2 / Fold change vs veh, SLC12A2 / RFU, IBTK / Fold change vs veh, IBTK / RFU, ESF1 / Fold change vs veh, ESF1 / Fold change vs veh, TMEM50B / RFU, TAOK1 / Fold change vs veh, TAOK1 / RFU, ACBD3 / Fold change vs veh, ACBD3 / RFU, TMA16 / Fold change vs veh, TMA16 / RFU, RWDD3 / Fold change vs veh, RWDD3 / RFU, BCAT1 / Fold change vs veh, BCAT1 / RFU, EDEM3 / Fold change vs veh, EDEM3 / RFU, TMEM33 / Fold change vs veh, TMEM33 / RFU, WDR75 / Fold change vs veh, WDR75 / RFU, AHCTF1 / Fold change vs veh, AHCTF1 / RFU, TFRC / Fold change vs veh, TFRC / RFU, ZDHHC17 / Fold change vs veh, ZDHHC17 / RFU, NOM1 / Fold change vs veh, NOM1 / RFU, ARL8B / Fold change vs veh, ARL8B / RFU, ZBTB11 / Fold change vs veh, ZBTB11 / RFU, TAMM41 / Fold change vs veh, TAMM41 / RFU, KIAA1704 /// LOC100996395 / Fold change vs veh, KIAA1704 /// LOC100996395 / RFU, ING1 / Fold change vs veh, ING1 / RFU, TRMT61B / Fold change vs veh, TRMT61B / RFU, FUBP3 / Fold change vs veh, FUBP3 / RFU, TP53 / Fold change vs veh, TP53 / RFU, TNKS2 / Fold change vs veh, TNKS2 / RFU, ZFP14 / Fold change vs veh, ZFP14 / RFU, ACTR2 / Fold change vs veh, ACTR2 / RFU, PPP3R1 / Fold change vs veh, PPP3R1 / RFU, PIK3R1 / Fold change vs veh, PIK3R1 / RFU, HNRNPA1 / Fold change vs veh, HNRNPA1 / RFU, RNF170 / Fold change vs veh, RNF170 / RFU, ZNF28 / Fold change vs veh, ZNF28 / RFU, RNGTT / Fold change vs veh, RNGTT / RFU, OGT / Fold change vs veh, OGT / RFU, BRD1 / Fold change vs veh, BRD1 / RFU, MARS / Fold change vs veh, MARS / RFU, ZNF655 / Fold change vs veh, ZNF655 / RFU, FAHD1 / Fold change vs veh, FAHD1 / RFU, BDP1 / Fold change vs veh, BDP1 / RFU, LRRCC1 / Fold change vs veh, LRRCC1 / RFU, ARID1A / Fold change vs veh, ARID1A / RFU, ZNF146 / Fold change vs veh, ZNF146 / RFU, ZNF330 / Fold change vs veh, ZNF330 / RFU, GPN3 / Fold change vs veh, GPN3 / RFU, C9orf123 / Fold change vs veh, C9orf123 / RFU, N4BP2L2 / Fold change vs veh, N4BP2L2 / RFU, ARFIP1 / Fold change vs veh, ARFIP1 / RFU, FAM179B / Fold change vs veh, FAM179B / RFU, BCL10 / Fold change vs veh, BCL10 / RFU, UHRF1BP1L / Fold change vs veh, UHRF1BP1L / RFU, BET1 / Fold change vs veh, BET1 / RFU, CNOT2 / Fold change vs veh, CNOT2 / RFU, ZNF268 / Fold change vs veh, ZNF268 / Fold change vs veh, ZNF507 / RFU, DGCR2 / Fold change vs veh, DGCR2 / RFU, WDSUB1 / Fold change vs veh, WDSUB1 / Fold change vs veh, HSP90B1 /// MIR3652 / RFU, ADSS / Fold change vs veh, ADSS / RFU, GK / Fold change vs veh, GK / RFU, ZNF148 / Fold change vs veh, ZNF148 / RFU, TAF9 / Fold change vs veh, TAF9 / RFU, SLC1A5 / Fold change vs veh, SLC1A5 / RFU, SLMO2 / Fold change vs veh, SLMO2 / RFU, ABCC4 / Fold change vs veh, ABCC4 / RFU, LOC101060439 /// RAP1B / Fold change vs veh, LOC101060439 /// RAP1B / RFU, RFX7 / Fold change vs veh, RFX7 / RFU, GTPBP10 / Fold change vs veh, GTPBP10 / RFU, CNEP1R1 / Fold change vs veh, CNEP1R1 / RFU, BIVM-ERCC5 /// ERCC5 / Fold change vs veh, BIVM-ERCC5 /// ERCC5 / RFU, ILF3 / Fold change vs veh, ILF3 / RFU 11762660_at / Fold change /veh 11762660_at / RFU VCAN (11757783_s_at) / Fold change /veh VCAN (11757783_s_at) / RFU DDX43 (11728927_at) / Fold change /veh DDX43 (11728927_at) / RFU KRT8 (11758188_x_at) / Fold change /veh KRT8 (11758188_x_at) / RFU NKD1 (11759106_at) / Fold change /veh NKD1 (11759106_at) / RFU SRD5A1 (11742802_a_at) / Fold change /veh SRD5A1 (11742802_a_at) / RFU TPSAB1 /// TPSB2 (11721975_s_at) / Fold change /veh TPSAB1 /// TPSB2 (11721975_s_at) / RFU GSTM3 (11746129_a_at) / Fold change /veh GSTM3 (11746129_a_at) / RFU IL23R (11737362_x_at) / Fold change /veh IL23R (11737362_x_at) / RFU TMEM51 (11727254_a_at) / Fold change /veh TMEM51 (11727254_a_at) / RFU PIWIL2 (11732686_x_at) / Fold change /veh PIWIL2 (11732686_x_at) / RFU ORM1 (11744905_x_at) / Fold change /veh ORM1 (11744905_x_at) / RFU CCDC152 (11743942_at) / Fold change /veh CCDC152 (11743942_at) / RFU ECM1 (11717891_a_at) / Fold change /veh ECM1 (11717891_a_at) / RFU IL23R (11748794_a_at) / Fold change /veh IL23R (11748794_a_at) / RFU TNFAIP8L3 (11732012_x_at) / Fold change /veh TNFAIP8L3 (11732012_x_at) / RFU MBOAT4 (11741988_at) / Fold change /veh MBOAT4 (11741988_at) / RFU 11764193_at / Fold change /veh 11764193_at / RFU TMEM53 (11763286_at) / Fold change /veh TMEM53 (11763286_at) / RFU MAGEB2 (11727129_at) / Fold change /veh MAGEB2 (11727129_at) / RFU TMEM200A (11744735_a_at) / Fold change /veh TMEM200A (11744735_a_at) / RFU CCDC152 (11751479_a_at) / Fold change /veh CCDC152 (11751479_a_at) / RFU FAM211A (11726209_a_at) / Fold change /veh FAM211A (11726209_a_at) / RFU RGS16 (11746705_a_at) / Fold change /veh RGS16 (11746705_a_at) / RFU VCAN (11755009_s_at) / Fold change /veh VCAN (11755009_s_at) / RFU RHOB (11743442_s_at) / Fold change /veh RHOB (11743442_s_at) / RFU RGS16 (11720943_a_at) / Fold change /veh RGS16 (11720943_a_at) / RFU RGS16 (11720944_at) / Fold change /veh RGS16 (11720944_at) / RFU, VPS4B / Fold change vs veh, VPS4B / RFU, CREB1 / Fold change vs veh, CREB1 / RFU, DNAJC13 / Fold change vs veh, DNAJC13 / RFU, GNAQ / Fold change vs veh, GNAQ / RFU, CDK5R1 / Fold change vs veh, CDK5R1 / RFU, ZRANB3 / Fold change vs veh, ZRANB3 / RFU, CUL4A / Fold change vs veh, CUL4A / RFU, CCNY / Fold change vs veh, CCNY / RFU, UFL1 / Fold change vs veh, UFL1 / RFU, COG3 / Fold change vs veh, COG3 / RFU, DIAPH2 / Fold change vs veh, DIAPH2 / RFU, SKA2 / Fold change vs veh, SKA2 / RFU, AFF3 / Fold change vs veh, AFF3 / RFU, LMF1 / Fold change vs veh, LMF1 / RFU, IPO11 / Fold change vs veh, IPO11 / RFU, DFFB / Fold change vs veh, DFFB / RFU, FOXP1 / Fold change vs veh, FOXP1 / RFU, CARD8 / Fold change vs veh, CARD8 / RFU, STRN3 / Fold change vs veh, STRN3 / RFU, ADK / Fold change vs veh, ADK / RFU, RASSF2 / Fold change vs veh, RASSF2 / RFU, WIPF1 / Fold change vs veh, WIPF1 / RFU, LARP1B / Fold change vs veh, LARP1B / RFU, RASA1 / Fold change vs veh, RASA1 / RFU, RB1 / Fold change vs veh, RB1 / RFU, PPFIA1 / Fold change vs veh, PPFIA1 / RFU, MAT2A / Fold change vs veh, MAT2A / RFU, CCT5 / Fold change vs veh, CCT5 / RFU, WDR92 / Fold change vs veh, WDR92 / RFU, CUX1 / Fold change vs veh, CUX1 / RFU, TTC7A / Fold change vs veh, TTC7A / RFU, TMEM135 / Fold change vs veh, TMEM135 / RFU, DEPTOR / Fold change vs veh, DEPTOR / RFU, CPM / Fold change vs veh, CPM / RFU, DNAJB6 / Fold change vs veh, DNAJB6 / RFU, CACNA2D3 / Fold change vs veh, CACNA2D3 / RFU, DTX4 / Fold change vs veh, DTX4 / RFU, TFCP2 / Fold change vs veh, TFCP2 / RFU, GMCL1 /// GMCL1P1 / Fold change vs veh, GMCL1 /// GMCL1P1 / RFU, AEBP2 / Fold change vs veh, AEBP2 / RFU, SNHG1 /// SNORD22 /// SNORD25 /// SNORD26 /// SNORD27 /// SNORD28 /// SNORD29 /// SNORD31 / Fold change vs veh, SNHG1 /// SNORD22 /// SNORD25 /// SNORD26 /// SNORD27 /// SNORD28 /// SNORD29 /// SNORD31 / Fold change (Aza/veh), C12orf56 (ProbeSet 11735607_a_at) / Fold change (ACY-1035/veh), C12orf56 (ProbeSet 11735607_a_at) / Fold change (Aza/veh), FGFR1OP (ProbeSet 11751329_s_at) / Fold change (ACY-1035/veh), FGFR1OP (ProbeSet 11751329_s_at) / Fold change (Aza/veh), VPS36 (ProbeSet 11739960_a_at) / Fold change (ACY-1035/veh), VPS36 (ProbeSet 11739960_a_at) / RFU SYPL1 (11715823_x_at) / Fold change /veh SYPL1 (11715823_x_at) / RFU IGFBP7 (11715501_s_at) / Fold change /veh IGFBP7 (11715501_s_at) / RFU REEP3 (11722064_at) / Fold change /veh REEP3 (11722064_at) / RFU IGLL1 (11728026_x_at) / Fold change /veh IGLL1 (11728026_x_at): dose or concentration left out as unconfirmed
Conditions: MV-4-11 cells, 48 hours

Nc1ccc(-c2cccs2)cc1NC(=O)c1ccc2c(c1)cc(C1CC1)n2CCN1CCOCC1 [ACY-1035]
RFU RASL12 (11751679_a_at): 18.80 RFU
